Assay results reported in the NIST ThermoML archive (doi:10.1016/j.jct.2008.07.010).

Experiment: xn = mol fraction of the nth substance listed
Conditions: 101 kPa, Liquid; for viscosity: Capillary tube (Ostwald / Ubbelohde) method; for speed of sound: Sing-around technique in a fixed-path interferometer; for mass density: Vibrating tube method

CCCCCCCCCCCCCCCC [hexadecane] + CC(C)O
Conditions | mass density, 298.15 K [kg/m3] | mass density, 303.15 K [kg/m3] | mass density, 308.15 K [kg/m3] | speed of sound, 298.15 K [m/s] | speed of sound, 303.15 K [m/s] | speed of sound, 308.15 K [m/s] | viscosity, 298.15 K [mPa·s] | viscosity, 303.15 K [mPa·s] | viscosity, 308.15 K [mPa·s]
x2 = 0 | 770.456 | 766.981 | 763.52 | 1338.6 | 1320 | 1301.7 | 3.041 | 2.706 | 2.409
x2 = 0.0441 | 770.067 | 766.622 | 763.106 | 1334.2 | 1315.5 | 1297.1 | 2.867 | 2.521 | 2.231
x2 = 0.1285 | 769.792 | 766.198 | 762.606 | 1325.5 | 1306.8 | 1288.2 | 2.654 | 2.312 | 2.034
x2 = 0.1617 | 769.728 | 766.093 | 762.479 | 1321.8 | 1302.9 | 1284.7 | 2.601 | 2.264 | 1.989
x2 = 0.2294 | 769.59 | 765.938 | 762.287 | 1314.8 | 1295.9 | 1277.2 | 2.531 | 2.214 | 1.944
x2 = 0.2707 | 769.56 | 765.896 | 762.206 | 1310.1 | 1291.2 | 1272.5 | 2.504 | 2.199 | 1.928
x2 = 0.332 | 769.565 | 765.88 | 762.156 | 1303.1 | 1284.1 | 1265.6 | 2.47 | 2.176 | 1.92
x2 = 0.414 | 769.697 | 765.976 | 762.174 | 1293.5 | 1274.5 | 1255.6 | 2.43 | 2.153 | 1.904
x2 = 0.5064 | 770.039 | 766.23 | 762.374 | 1280.3 | 1261.3 | 1242.7 | 2.36 | 2.08 | 1.843
x2 = 0.6119 | 770.701 | 766.793 | 762.751 | 1263.2 | 1244.4 | 1225.5 | 2.242 | 1.95 | 1.719
x2 = 0.7008 | 771.594 | 767.564 | 763.551 | 1245.9 | 1227.1 | 1208.2 | 2.123 | 1.821 | 1.599
x2 = 0.762 | 772.47 | 768.35 | 764.298 | 1231.6 | 1212.9 | 1194 | 2.051 | 1.723 | 1.51
x2 = 0.8419 | 774.082 | 769.888 | 765.761 | 1208.4 | 1189.9 | 1171.2 | 1.974 | 1.628 | 1.418
x2 = 0.9188 | 776.284 | 772.263 | 768.061 | 1180 | 1161.6 | 1143.6 | 1.96 | 1.608 | 1.419
x2 = 0.9498 | 777.915 | 773.694 | 769.382 | 1166.2 | 1148.3 | 1130.3 | 1.983 | 1.647 | 1.454

CC(C)CCCC(C)CCCC(C)CCCCC(C)CCCC(C)CCCC(C)C (stereo not given) [2,6,10,15,19,23-hexamethyltetracosane] + CC(C)O
Conditions | mass density, 298.15 K [kg/m3] | mass density, 303.15 K [kg/m3] | mass density, 308.15 K [kg/m3] | speed of sound, 298.15 K [m/s] | speed of sound, 303.15 K [m/s] | speed of sound, 308.15 K [m/s] | viscosity, 298.15 K [mPa·s] | viscosity, 303.15 K [mPa·s] | viscosity, 308.15 K [mPa·s]
x2 = 0 | 805.122 | 801.912 | 798.709 | 1381.9 | 1364.1 | 1346.5 | 28.26 | 22.09 | 17.77
x2 = 0.0621 | 804.504 | 801.238 | 797.982 | 1377.4 | 1359.1 | 1341.4 | 24.12 | 18.75 | 15.29
x2 = 0.0949 | 804.196 | 800.909 | 797.625 | 1374.9 | 1356.8 | 1338.9 | 22.69 | 17.69 | 14.48
x2 = 0.1438 | 803.771 | 800.451 | 797.133 | 1371.4 | 1353.3 | 1335.5 | 21.22 | 16.63 | 13.66
x2 = 0.218 | 803.155 | 799.796 | 796.425 | 1366 | 1347.9 | 1330 | 19.65 | 15.45 | 12.74
x2 = 0.2865 | 802.572 | 799.185 | 795.767 | 1360.2 | 1342.2 | 1324.2 | 18.5 | 14.56 | 12.03
x2 = 0.3119 | 802.336 | 798.955 | 795.521 | 1358.2 | 1340 | 1321.9 | 18.11 | 14.24 | 11.76
x2 = 0.4022 | 801.467 | 798.03 | 794.563 | 1349.5 | 1331.3 | 1313.3 | 16.68 | 13.05 | 10.84
x2 = 0.5142 | 800.109 | 796.619 | 793.069 | 1336.4 | 1318.1 | 1299.9 | 14.34 | 11.37 | 9.424
x2 = 0.5952 | 798.83 | 795.275 | 791.676 | 1324.5 | 1306.4 | 1288.1 | 11.77 | 9.455 | 7.904
